This note sets out measurements from PMC3744530, “CTA095, a Novel Etk and Src Dual Inhibitor, Induces Apoptosis in Prostate Cancer Cells and Overcomes Resistance to Src Inhibitors” (PLoS ONE, 2013).

For assay [1], the target named is Itk (Homo sapiens, UniProt Q08881). The assay is described as follows: Kinase inhibition assay (TLC). Format: biochemical. As for the experimental part:
(§1) Kinase inhibition was measured using thin-layer-chromatography (TLC). Briefly, purified kinases (20 nM), the corresponding substrate (500 µM, TSFYGRH for Etk, YIYGSFK for the other kinases), and CTA095 (0–10 µM) were incubated in a kinase reaction (100 mM Hepes, pH 7.4, 10 mM MnCl2, 10 mM MgCl2, 1 mM DTT) for 5 min, and the reaction was started by adding 5 μCi ^33P-labeled ATP. The reaction (10 µl) was incubated at room temperature for 1 h and was stopped by adding 10 μL H3PO4. The radioactivity of the peptide substrate was analyzed using TLC as previously described.
(§2) In addition to the Btk family tyrosine kinases, the inhibitory activity of CTA095 to other kinases, including Lyn, Axl, Mer, EGFR, and Abl, was investigated using a TLC assay.

In assay [2] the target is Abl (Homo sapiens, UniProt P00519). The assay is described as follows: Kinase inhibition assay (TLC). The format is biochemical. The procedure:
as §1, §2

Assay [3] addresses Lyn (Homo sapiens, UniProt P07948). The assay is described as follows: Kinase inhibition assay (TLC). Format: biochemical. The procedure: as §1, §2
Assay [4] has as its target EGFR (Homo sapiens, UniProt P00533). The assay is described as follows: Kinase inhibition assay (TLC). Format: biochemical. As for the experimental part:
as §1, §2

For assay [5], the target named is T1, Mer (Homo sapiens, UniProt Q12866).
T1 construct: purchased Millipore Inc (Dundee, UK)
T1 sequence (Q12866 21-999): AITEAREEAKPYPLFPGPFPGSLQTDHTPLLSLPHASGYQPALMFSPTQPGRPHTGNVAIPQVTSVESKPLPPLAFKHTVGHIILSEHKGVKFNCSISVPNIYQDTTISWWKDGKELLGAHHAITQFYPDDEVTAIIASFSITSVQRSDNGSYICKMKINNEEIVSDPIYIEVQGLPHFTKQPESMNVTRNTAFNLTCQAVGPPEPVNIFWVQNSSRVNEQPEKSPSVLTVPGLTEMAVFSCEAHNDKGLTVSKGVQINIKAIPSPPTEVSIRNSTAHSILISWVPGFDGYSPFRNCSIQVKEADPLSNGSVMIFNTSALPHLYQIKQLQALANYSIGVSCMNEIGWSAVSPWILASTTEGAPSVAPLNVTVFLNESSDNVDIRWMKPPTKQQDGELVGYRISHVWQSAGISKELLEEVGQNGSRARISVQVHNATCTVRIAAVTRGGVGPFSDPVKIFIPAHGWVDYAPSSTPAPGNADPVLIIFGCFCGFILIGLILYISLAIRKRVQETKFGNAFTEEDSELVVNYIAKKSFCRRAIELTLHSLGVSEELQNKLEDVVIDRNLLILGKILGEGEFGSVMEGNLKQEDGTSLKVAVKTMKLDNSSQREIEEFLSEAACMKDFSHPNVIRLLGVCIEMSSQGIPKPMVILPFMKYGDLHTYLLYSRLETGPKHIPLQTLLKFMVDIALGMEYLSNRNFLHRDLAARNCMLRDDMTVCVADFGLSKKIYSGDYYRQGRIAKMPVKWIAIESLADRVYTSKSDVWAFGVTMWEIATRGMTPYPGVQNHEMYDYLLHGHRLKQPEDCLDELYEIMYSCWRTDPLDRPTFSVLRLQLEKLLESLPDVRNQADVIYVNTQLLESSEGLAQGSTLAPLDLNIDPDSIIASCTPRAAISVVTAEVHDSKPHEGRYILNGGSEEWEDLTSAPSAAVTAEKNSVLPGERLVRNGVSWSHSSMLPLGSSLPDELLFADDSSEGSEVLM
The assay is described as follows: Kinase inhibition assay (TLC). The format is biochemical. The procedure: as §1, §2

In assay [6] the target is Axl (Homo sapiens, UniProt P30530). The assay can be described thus: Kinase inhibition assay (TLC). Format: biochemical. The procedure: as §1, §2
Chain of Axl (P30530 26-894, species assumed): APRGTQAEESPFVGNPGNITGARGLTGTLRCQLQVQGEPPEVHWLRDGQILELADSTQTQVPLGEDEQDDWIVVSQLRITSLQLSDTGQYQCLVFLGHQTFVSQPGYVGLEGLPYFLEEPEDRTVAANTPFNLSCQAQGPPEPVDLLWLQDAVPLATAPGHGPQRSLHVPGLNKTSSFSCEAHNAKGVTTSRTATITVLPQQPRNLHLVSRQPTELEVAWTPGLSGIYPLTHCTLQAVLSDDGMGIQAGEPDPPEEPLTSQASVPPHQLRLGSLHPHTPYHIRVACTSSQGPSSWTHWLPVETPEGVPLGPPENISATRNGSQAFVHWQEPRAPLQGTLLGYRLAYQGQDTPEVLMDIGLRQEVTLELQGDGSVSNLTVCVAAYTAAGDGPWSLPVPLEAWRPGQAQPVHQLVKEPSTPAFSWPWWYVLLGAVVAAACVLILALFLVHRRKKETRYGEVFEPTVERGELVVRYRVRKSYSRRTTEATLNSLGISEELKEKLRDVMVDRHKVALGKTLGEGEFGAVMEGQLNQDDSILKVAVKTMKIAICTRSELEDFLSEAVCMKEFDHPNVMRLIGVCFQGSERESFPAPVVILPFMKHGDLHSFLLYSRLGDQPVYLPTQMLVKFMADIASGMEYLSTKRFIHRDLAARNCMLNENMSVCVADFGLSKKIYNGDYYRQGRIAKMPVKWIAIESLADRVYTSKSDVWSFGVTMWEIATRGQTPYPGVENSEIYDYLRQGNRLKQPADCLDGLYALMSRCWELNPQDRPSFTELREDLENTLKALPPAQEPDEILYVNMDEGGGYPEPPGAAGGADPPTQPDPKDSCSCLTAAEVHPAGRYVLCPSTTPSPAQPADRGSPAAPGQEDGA
Assay [7] has as its system PC3 cells stably transfected with GFP-LC3. The assay can be described thus: Autophagy assay (GFP-LC3 puncta, LC3 immunoblot). Format: cell-based, human. The following applies: PC3 GFP-LC3, 5 μM, 24 h. As for the experimental part: PC3 cells were stably transfected with GFP-LC3 [16]. Cells were grown in a 6-well plate to 50% confluence and treated with 5 μM CTA095 for 24 h. Autophagy was visualized by GFP-LC3 “puncta” and immunoblot of Endogenous LC3 isoforms.
Figure 6 Induction of autophagy in PC3 cells by CTA095. Cells were grown in 6-well plate to 50% confluence and treated with CTA095. Autophagy was visualized by GFP-LC3 “puncta” (A) and immunoblot of Endogenous LC3 isoforms (B). All experiments were carried out 24 h after treatment.

Assay [8] deals with BCL2 mRNA in PC3-AZD20 cells. The assay can be described thus: Real-time PCR of BCL2 mRNA. The format is cell-based, human. The following applies: PC3-AZD20, 10 μM, RT-PCR. The procedure: PC3-AZD20 cells were seeded at 10^6 cells/well in 6 well plates overnight. The cells were treated with AZD0530 or CTA095 at 10 μM. Apoptosis was analyzed using Annexin-V FITC apoptosis detection kit. The mRNA levels of Myc and BCL2 were measured using real-time PCR. pEtk, Etk, pSrc, Src, pStat3, Stat3, Myc and BCL2 levels were measured using the corresponding antibodies through a Western blot.
Figure 12 CTA095 induces apoptosis in Src inhibitor resistant prostate cancer cells through Myc and BCL2 inhibition. PC3-AZD20 (PC3 cell resistant to 20 μM AZD0530) cells were seeded at 10^6 cells/well in 6 well plates overnight. The cells were treated with AZD0530 or CTA095 at 10 μM. Apoptosis was analyzed using Annexin-V FITC apoptosis detection kit (A). The mRNA levels of Myc and BCL2 were measured using real-time PCR (B). pEtk, Etk, pSrc, Src, pStat3, Stat3, Myc and BCL2 levels were measured using the corresponding antibodies through Western blot (C). Columns, mean; bars, standard deviation, n = 3.

For assay [9], the system named is STAT3 phosphorylation in PC3 cells. The assay can be described thus: Western blot of STAT3 phosphorylation. Format: cell-based, human. The settings on record: 24 h. The procedure: Western blotting was performed as described previously. Proteins were detected using the following antibodies: β-actin (Sigma-Aldrich, Saint Louis, MO), Etk (Santa Cruz Inc., Santa Cruz, CA), pEtk; Src, pSrc; Stat3, pStat3. For phospho-Etk, cells were pre-treated with 100 μM pervanadate for 15 min before harvest.
Figure 4 Inhibition of cell signaling in PC3 cells following treatment with CTA095. Cells were grown in 10 mm plate to 50% confluence and treated with CTA095. Cells were harvested after 24 h. pEtk, Etk, pSrc, Src, pStat3, Stat3, pAkt and Akt levels were measured using the corresponding antibodies by Western blot. One of three similar experiments depicted.

The subject of assay [10] is PC3 cells. The assay can be described thus: Flow cytometry: PI staining and Annexin V-FITC apoptosis. The format is cell-based, human. The following applies: PC3, 24 h. As for the experimental part:
PC3 cells were treated with 0.1% DMSO (control) and CTA095 at the indicated concentrations for 24 h. Cell cycle arrest was determined by the incorporation of propidium iodide (Sigma-Aldrich) into permeabilized cells. Cells undergoing apoptosis were identified using an Annexin V-FITC kit (Abcam), following the manufacturer's instructions. The cells were analyzed using a Coulter Epics XL flow cytometer (Beckman Coulter, Miami, FL).
Figure 7 Induction of apoptosis of PC3 cells following treatment with CTA095. PC3 cells were seeded at 10^6 cells/ml (2 ml) in a 6-well plate overnight and then treated with CTA095 at the indicated concentrations for 24 h. Cell cycle arrest was analyzed using PI staining (A). Apoptosis was analyzed using Annexin-V FITC apoptosis detection kit (B). Caspase 9 activation was measured using western blot (D). For caspase 3/7 activity, PC3 cells were seeded at 5000 cells/well in 96 well plate overnight and treated with CTA095 at 0–10 μM for 24 h. Caspase-3/7 activities were measured using the Apo-ONE Homogeneous Caspase-3/7 Assay kit (Promega, Madison, WI) according to the manufacturer's instruction. Columns, mean; bars, standard deviation, n = 3. […] TEXT PRINTED IN THE PICTURE: (A) CTA095: 4.3% (0 μM); 6.9% (5 μM); 44.0% (10 μM) DOUBTS OF THE COPYIST ABOUT THIS PICTURE: Panel A prints no substance label. […]

In assay [11] the test system is HUVEC cells. The assay can be described thus: HUVEC cell tube formation assay. The following applies: 5 μM, 6 h. The format is cell-based. The procedure: HUVEC cells were seeded on mitrogel and treated with CTA095 (0 and 5 μM) for 6 h. Vascular tube formation was visualized using a microscope.
Figure 8 Inhibition of tube formation and cell migration by CTA095. Inhibition of vascular tube formation of HUVEC endothelial cells (A) and inhibition of migration (wound healing) of PC3 human prostate cancer cells (B) by CTA095. (A) HUVEC cells were seed on mitrogel and treated with CTA095 (0 and 5 μM) for 6 h. Vascular tube formation was visualized using microscope. (B) PC3 cells were grown in 6-well plate to 60% confluency. Then wounds were made and treated with CTA095 (0 and 5 μM). Cell migration (wound healing) was visualized under microscope at the indicated times.

Chain of Itk (Q08881 whole entry, species assumed): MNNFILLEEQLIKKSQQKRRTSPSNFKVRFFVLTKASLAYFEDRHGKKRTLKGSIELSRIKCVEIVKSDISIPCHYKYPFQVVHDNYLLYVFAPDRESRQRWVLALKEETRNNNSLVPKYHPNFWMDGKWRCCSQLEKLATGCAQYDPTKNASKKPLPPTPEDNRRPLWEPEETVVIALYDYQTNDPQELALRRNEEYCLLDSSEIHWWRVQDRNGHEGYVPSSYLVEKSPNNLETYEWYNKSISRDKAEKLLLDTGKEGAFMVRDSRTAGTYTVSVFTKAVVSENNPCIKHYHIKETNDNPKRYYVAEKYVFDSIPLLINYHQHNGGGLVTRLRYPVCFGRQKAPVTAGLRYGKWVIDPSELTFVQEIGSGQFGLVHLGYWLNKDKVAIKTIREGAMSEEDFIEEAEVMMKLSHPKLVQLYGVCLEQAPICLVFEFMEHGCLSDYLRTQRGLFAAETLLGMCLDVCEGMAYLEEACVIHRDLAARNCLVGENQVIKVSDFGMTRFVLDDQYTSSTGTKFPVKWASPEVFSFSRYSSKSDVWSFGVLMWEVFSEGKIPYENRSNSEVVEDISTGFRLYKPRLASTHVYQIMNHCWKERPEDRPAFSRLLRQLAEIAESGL
Chain of EGFR (P00533 25-1210, species assumed): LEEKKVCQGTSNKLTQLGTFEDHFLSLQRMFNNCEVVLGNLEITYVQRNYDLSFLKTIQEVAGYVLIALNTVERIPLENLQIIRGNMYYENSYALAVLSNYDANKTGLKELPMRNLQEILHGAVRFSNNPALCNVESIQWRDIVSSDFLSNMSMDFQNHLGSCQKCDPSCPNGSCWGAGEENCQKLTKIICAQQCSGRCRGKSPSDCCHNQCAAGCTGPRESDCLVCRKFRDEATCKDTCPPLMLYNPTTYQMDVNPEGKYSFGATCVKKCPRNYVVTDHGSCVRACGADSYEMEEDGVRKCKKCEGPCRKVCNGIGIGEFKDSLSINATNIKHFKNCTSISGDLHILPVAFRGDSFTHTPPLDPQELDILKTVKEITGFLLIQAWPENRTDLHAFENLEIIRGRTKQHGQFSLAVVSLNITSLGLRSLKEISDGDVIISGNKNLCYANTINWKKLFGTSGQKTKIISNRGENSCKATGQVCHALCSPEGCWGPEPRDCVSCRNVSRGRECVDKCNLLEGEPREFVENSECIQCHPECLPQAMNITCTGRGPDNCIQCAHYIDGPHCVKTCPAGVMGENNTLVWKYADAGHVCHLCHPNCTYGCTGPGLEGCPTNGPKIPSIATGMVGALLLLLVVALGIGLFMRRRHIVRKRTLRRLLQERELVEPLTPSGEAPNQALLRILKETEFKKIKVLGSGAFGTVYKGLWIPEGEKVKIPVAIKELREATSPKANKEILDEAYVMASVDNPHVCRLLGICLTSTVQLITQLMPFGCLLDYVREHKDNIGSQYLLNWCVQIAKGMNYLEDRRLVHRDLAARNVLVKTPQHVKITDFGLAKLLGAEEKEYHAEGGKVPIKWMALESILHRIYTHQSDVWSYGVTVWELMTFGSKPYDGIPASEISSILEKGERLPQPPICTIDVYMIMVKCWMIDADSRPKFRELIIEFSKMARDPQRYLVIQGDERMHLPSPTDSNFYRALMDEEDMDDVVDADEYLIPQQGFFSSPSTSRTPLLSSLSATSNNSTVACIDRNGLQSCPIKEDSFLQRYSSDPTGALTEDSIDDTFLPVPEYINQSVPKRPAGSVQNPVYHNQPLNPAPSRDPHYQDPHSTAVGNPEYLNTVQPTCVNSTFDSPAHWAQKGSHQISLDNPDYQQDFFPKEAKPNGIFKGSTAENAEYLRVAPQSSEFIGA
Chain of Abl (P00519 whole entry, species assumed): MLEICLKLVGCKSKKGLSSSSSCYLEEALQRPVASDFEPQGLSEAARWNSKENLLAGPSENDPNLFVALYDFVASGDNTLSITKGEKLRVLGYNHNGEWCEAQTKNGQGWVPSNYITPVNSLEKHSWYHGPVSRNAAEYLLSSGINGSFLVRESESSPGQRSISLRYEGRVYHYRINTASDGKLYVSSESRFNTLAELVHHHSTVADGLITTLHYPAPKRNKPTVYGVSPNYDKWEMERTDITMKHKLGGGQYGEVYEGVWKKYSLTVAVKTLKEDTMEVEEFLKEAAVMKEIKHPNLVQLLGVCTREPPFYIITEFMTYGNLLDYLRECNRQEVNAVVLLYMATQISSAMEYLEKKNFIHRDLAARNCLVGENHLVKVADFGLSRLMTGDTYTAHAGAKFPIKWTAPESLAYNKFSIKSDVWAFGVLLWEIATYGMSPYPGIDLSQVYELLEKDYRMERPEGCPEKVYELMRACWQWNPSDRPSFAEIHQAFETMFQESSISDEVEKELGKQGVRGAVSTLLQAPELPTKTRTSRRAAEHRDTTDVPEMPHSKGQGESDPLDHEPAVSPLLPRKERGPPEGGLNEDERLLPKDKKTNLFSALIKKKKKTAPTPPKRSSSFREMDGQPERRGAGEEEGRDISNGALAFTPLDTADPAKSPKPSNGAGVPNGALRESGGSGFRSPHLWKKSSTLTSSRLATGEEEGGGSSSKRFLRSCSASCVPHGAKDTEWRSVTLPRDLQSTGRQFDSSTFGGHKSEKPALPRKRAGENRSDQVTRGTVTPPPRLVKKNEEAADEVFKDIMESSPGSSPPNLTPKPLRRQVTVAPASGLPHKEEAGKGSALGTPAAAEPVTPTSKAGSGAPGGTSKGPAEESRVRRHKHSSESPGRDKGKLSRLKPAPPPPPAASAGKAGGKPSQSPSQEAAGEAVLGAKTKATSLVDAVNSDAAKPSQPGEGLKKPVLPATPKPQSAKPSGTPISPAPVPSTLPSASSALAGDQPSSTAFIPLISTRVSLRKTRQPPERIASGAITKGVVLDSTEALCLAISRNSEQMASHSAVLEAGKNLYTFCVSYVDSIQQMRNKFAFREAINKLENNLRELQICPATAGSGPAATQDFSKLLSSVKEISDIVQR

`O=c1[nH]c2cc3nc(-c4ccc5oc6ccccc6c5c4)n(CCCN4CCCCC4)c3cc2nc1-c1ccccc1` [CTA095, 2-(dibenzo[b,d]furan-2-yl)-7-phenyl-1-(3-(piperidin-1-yl)propyl)-1H-imidazo[4,5-g]quinoxalin-6(5H)-one]: the IC50 in assay [1], in assay [2], in [3], in assay [4], in assay [5] and in [6] was more than 10 µM throughout. Moreover, in assay [7], the “autophagy (GFP-LC3 puncta)” value was “extensive distinct “puncta” autophagosome morphology”. Moreover, the “BCL2 mRNA level” value in [8] was “significantly down regulated”. Further, in assay [9], the STAT3 phosphorylation entry was “also inhibited”. Besides, the “apoptosis (Annexin-V reactivity)” value in [10] is on record as “dose-dependent increase of apoptosis”. Further, the “tube formation of HUVEC cells” value in assay [11] was “disrupted”.
